Several values for one entry are separate records, joined by “and”; a condition that tells them apart may be missing. Equal values may be shown once. Read-outs that look alike come from different tables or passages of the source. Marks after values point to notes of the source that are not given here.
Key:
[1] = test system: peripheral blood lymphocytes stimulated by PHA; experiment: PHA stimulation assay, [3H]TdR incorporation; type: cell-based, human; details: Reverse Prenyl Compounds, read-out: IC50 PHA Assays
Method: (§1) Fresh peripheral blood lymphocytes isolated by Ficoll-Hypaque density centrifugation are stimulated by PHA or the OKT3 antibody (anti-CD3), which stimulates via interaction with CD3. Stimulation is measured by incorporation of radioactive thymidine [(^3H)TdR] into proliferating cells, with an unhibited control signal of 48,000-75,000 cpm. IC50 values are estimated from inhibitions of proliferation observed at various drug concentrations.

[2] = test system: peripheral blood lymphocytes stimulated by OKT3 antibody (anti-CD3); experiment: OKT3 stimulation assay, [3H]TdR incorporation; type: cell-based, human; details: Reverse Prenyl Compounds, read-out: IC50 OKT3 Assays
Method: as §1

[3] = test system: Human Peripheral Blood Lymphocytes; experiment: Thymidine incorporation assay: activation of human peripheral blood lymphocytes by phytohemagglutinin; type: cell-based; details: drug 30 min, then 10 μg/ml PHA 24 hrs, [3H]Thd incorporation
Method: Inhibitory Effects of Ardeemin Compounds on the Activation of Human Peripheral Blood Lymphocytes by Phytohemagglutinin
Thymidine Incorporation Assay:
PBL were exposed to various concentrations of drugs for 30 min and then added 10 μg/ml PHA for 24 hrs. [^3H]Thd (1 μCi/well) was then added and incubated for 1 hr. The reaction is stopped by adding 10% TCA for analysis of [^3H]Tdk incorporation into DNA.

[4] = test system: B6D2F1 mice; experiment: Cumulative toxicity in B6D2F1 mice
Method: FIG. 2 illustrates the cumulative toxicity in B6D2F1 mice treated with multidrug resistance reversal agents (mg/kg,i.p.,QD). Each group consists of five mice. […] Cumulated doses in the series shown in panels A, B and C were 712.5, 1700 and 3950 mg/kg×day, respectively.

[5] = test system: heterotopic cardiac transplants; experiment: Heterotopic mouse cardiac transplants (prospective example); type: in vivo, mice; details: 40 mg/kg-1 mg/25 g per day, i.v., 7 or 14 days, Alzet pump
Method: 5-N-Acetylardeemin and 5-N-acetyl-8-desmethylardeemin are individually administered to mice which have received heterotopic cardiac transplants at a range of concentrations (40 mg/kg-1 mg/25 g per day), i.v., for seven days or fourteen days using an Alzet pump. Each compound is dissolved in DMSO at high concentration prior to administration. Control animals receive the same volume of carrier solvent (40 μL DMSO).

[6] = test system: P388/0 Tumors; type: in vivo; design: SURVIVAL TIME of individual mice (No. 1-6): unit: days
Method: Survival times were determined for B6D2F1 mice inoculated with P388/0 cells, 10^6 cells/mouse, i.p. at Day 0. The mice were treated by adriamycin and 5-N-acetylardeemin, i.p., daily for four days. Survival times were recorded based on the time of death with the following scheme of decimal values: 8AM (0.0), 1PM (0.25), 5PM (0.5). An in vivo immunosuppressive effect of the ardeemin derivatives is found which persistently […] the lifespan of P388 tumor-bearing B6D2F1 mice in a dose-dependent manner.

[7] = test system: inflammation induced by carrageene; experiment: Inflammation induced by carrageene in mice pedis; type: in vivo
[8] = test system: inflammation induced by carrageene; experiment: Inflammation induced by carrageene in mice pedis; type: in vivo; remark: listed apart in the source
Method: FIG. 3 illustrates the delayed treatment of inflammation induced by carrageene with aspirin, N-acetylardeemin and hydrocortisone. (●) Control; (▪) Aspirin (500 mg/kg, p.o.); (Δ) N-acetylardeemin (100 mg/kg, i.p.); (x) Hydrocortisone cream.
FIG. 4 illustrates the treatment of inflammation induced by carrageene with aspirin, N-acetylardeemin and hydrocortisone. (●) Control; (▪) Aspirin (500 mg/kg, p.o.); (Δ) N-acetylardeemin (100 mg/kg, i.p.); (x) Hydrocortisone cream.

[9] = test system: peripheral blood lymphocytes stimulated by PHA; details: Classical immunosuppressant (historical data); read-out: IC50 PHA Assays; cited from earlier work
[10] = test system: peripheral blood lymphocytes stimulated by OKT3 antibody (anti-CD3); details: Classical immunosuppressant (historical data); read-out: IC50 OKT3 Assays; cited from earlier work
[11] = 5NAcArd 3.33 mg/kg i.p. daily Day 1-4
[12] = 5NAcArd 10 mg/kg i.p. daily Day 1-4
[13] = 5NAcArd 30 mg/kg i.p. daily Day 1-4
[14] = Adr 0.333 mg/kg i.p. daily Day 1-4
[15] = Adr 1.0 mg/kg i.p. daily Day 1-4
[16] = Adr 3.0 mg/kg i.p. daily Day 1-4

Compound: 5-N-Ac-F3-Ardeemin
- IC50 [1]: 9.97 ± 1.49 µM
- IC50 [2]: 4.56 µM

Compound: 8-demethylardeemin
- IC50 ([1]; listed as 8-Desmethylardeemin): 2.26 ± 0.06 µM
- IC50 [3]: 2.26 µM
- IC50 ([2]; listed as 8-Desmethylardeemin): 2.23 ± 0.16 µM
- IC50 ([2]; listed as 8-desmethylardeemin): 1.2 to 2.3 µM

Compound: C=CC(C)(C)[C@@]12C[C@H]3c4nc5ccccc5c(=O)n4CC(=O)N3[C@@H]1N(C(C)=O)c1ccccc12 [5-N-acetyl-8-demethylardeemin, 5-N-acetyl-8-desmethylardeemin]
- IC50 ([1]; listed as 5-N-Ac-8-desmethylardeemin): 1.2 ± 0.02 µM
- IC50 [3]: 0.98 µM
- toxicity to mice ([4]; FIG. 2, i.p., QD): very nontoxic
- toxicity to mice ([4]; sequential 100 mg/kg i.p. QDx6, 150 mg/kg QDx8, 200 mg/kg QDx3, 300 mg/kg QDx3): non-toxic
- average body weight decreases ([4]; up to 250 mg/kg, Qdx3): less than 0.5 g
- resistance of organ transplant to graft rejection vs control mice [5]: more resistant to graft rejection
- IC50 [2]: 1.13 ± 0.13 µM

Compound: C=CC(C)(C)[C@@]12C[C@H]3c4nc5ccccc5c(=O)n4[C@H](C)C(=O)N3[C@@H]1N(C(C)=O)c1ccccc12 [5-N-acetylardeemin]
- % ILS (% increase in lifespan) [6, 11]: −2%
- AWC D 4 [6, 11]: +0.9 Gm
- AWC D 6 [6, 11]: +3.3 Gm
- MST (mean survival time) [6, 11]: 7.25
- SURVIVAL TIME of individual mice (No. 1-6) [6, 11]: 8.0 (2×) and 6.0 and 7.0
- % ILS (% increase in lifespan) [6, 12]: −10%
- AWC D 4 [6, 12]: +1.7 Gm
- AWC D 6 [6, 12]: +4.8 Gm
- MST (mean survival time) [6, 12]: 6.67
- SURVIVAL TIME of individual mice (No. 1-6) [6, 12]: 7.5 and 6.0 and 6.5
- % ILS (% increase in lifespan) [6, 13]: −16%
- AWC D 4 [6, 13]: +1.6 Gm
- AWC D 6 [6, 13]: +3.8 Gm
- MST (mean survival time) [6, 13]: 6.25
- SURVIVAL TIME of individual mice (No. 1-6) [6, 13]: 6.0 and 6.5
- IC50 [1]: 7.96 µM
- IC50 [3]: 1.91 µM
- toxicity to mice ([4]; FIG. 2, i.p., QD): relatively nontoxic
- resistance of organ transplant to graft rejection vs control mice [5]: more resistant to graft rejection
- IC50 [2]: 31.9 µM
- Average Pedis Area, Hours: 0 ([7]; 50 mg/kg i.p.): 6.8 mm^2
- Average Pedis Area, Hours: 12 ([7]; 50 mg/kg i.p.): 12.4 mm^2
- Average Pedis Area, Hours: 24 ([7]; 50 mg/kg i.p.): 12.7 mm^2
- Average Pedis Area, Hours: 48 ([7]; 50 mg/kg i.p.): 11.3* mm^2
- Average Pedis Area, Hours: 60 ([7]; 50 mg/kg i.p.): 15.6 mm^2
- Toxicity Death ([7]; 50 mg/kg i.p.): 0/5
- Average Pedis Area, Hours: 12 ([7]; 100 mg/kg i.p.): 9.7*** mm^2
- Average Pedis Area, Hours: 24 ([7]; 100 mg/kg i.p.): 9.0*** mm^2
- Average Pedis Area, Hours: 48 ([7]; 100 mg/kg i.p.): 8.6*** mm^2
- Average Pedis Area, Hours: 0 ([8]; 100 mg/kg i.p.): 7.1 mm^2
- Average Pedis Area, Hours: 60 ([8]; 100 mg/kg i.p.): 10.2*** mm^2
- Toxicity Death ([8]; 100 mg/kg i.p.): 0/5

Compound: S=c1nc[nH]c2nc[nH]c12 [6-MP]
- IC50 [9]: 0.044 ± 0.017 µM
- IC50 [10]: 0.136 ± 0.019 µM

Compound: COc1cccc2c1C(=O)c1c(O)c3c(c(O)c1C2=O)C[C@@](O)(C(=O)CO)C[C@@H]3O[C@H]1C[C@H](N)[C@H](O)[C@H](C)O1 [Adr, adriamycin, reference compound]
- % ILS (% increase in lifespan) [6, 14]: 85%
- MST (mean survival time) [6, 14]: 13.75
- % ILS (% increase in lifespan) [6, 15]: 129%
- MST (mean survival time) [6, 15]: 17.0
- % ILS (% increase in lifespan) [6, 16]: 145%
- MST (mean survival time) [6, 16]: 18.19

Compound: CC(=O)Oc1ccccc1C(=O)O [Aspirin]
- Average Pedis Area, Hours: 0 ([7]; 250 mg/kg p.o.): 6.9 mm^2
- Average Pedis Area, Hours: 12 ([7]; 250 mg/kg p.o.): 12.5 mm^2
- Average Pedis Area, Hours: 24 ([7]; 250 mg/kg p.o.): 12.3 mm^2
- Average Pedis Area, Hours: 48 ([7]; 250 mg/kg p.o.): 13.2 mm^2
- Average Pedis Area, Hours: 60 ([7]; 250 mg/kg p.o.): 15.4** mm^2
- Toxicity Death ([7]; 250 mg/kg p.o.): 0/5
- Average Pedis Area, Hours: 12 ([7]; 500 mg/kg p.o.): 9.9** mm^2
- Average Pedis Area, Hours: 24 ([7]; 500 mg/kg p.o.): 10.6** mm^2
- Average Pedis Area, Hours: 48 ([7]; 500 mg/kg p.o.): 9.0*** mm^2
- Average Pedis Area, Hours: 60 ([7]; 500 mg/kg p.o.): 10.0*** mm^2
- Toxicity Death ([7]; 500 mg/kg p.o.): 0/5
- Average Pedis Area, Hours: 0 ([7]; 1000 mg/kg p.o.): 6.5 mm^2
- Average Pedis Area, Hours: 12 ([7]; 1000 mg/kg p.o.): 8.8*** mm^2
- Toxicity Death ([7]; 1000 mg/kg p.o.): 5/6
- Average Pedis Area, Hours: 0 ([8]; 500 mg/kg p.o.): 6.8 mm^2

Compound: Cc1c(-c2ccc(-c3ccccc3F)cc2)nc2ccc(F)cc2c1C(=O)O [Brequinard]
- IC50 [9]: 11.2 ± 4 µM
- IC50 [3]: 11.2 µM
- IC50 [10]: 56.6 ± 22.7 µM

Compound: C[C@@H]1C[C@H]2[C@@H]3CCC4=CC(=O)C=C[C@]4(C)[C@@]3(F)[C@@H](O)C[C@]2(C)[C@@]1(O)C(=O)CO [Dexamethasone, reference compound]
- IC50 ([3]; Homo sapiens, Lymphocyte): 28.2 µM

Compound: C=CC(C)(C)[C@@]12Nc3ccccc3[C@]1(O)C[C@H]1C(=O)N3[C@@H](C[C@]4(O)c5ccccc5N[C@]34C(C)(C)C=C)C(=O)N12 [Gypsetin]
- IC50 [1]: 5.48 ± 1.24 µM
- IC50 [2]: 12 ± 0.51 µM

Compound: C[C@]12CCC(=O)C=C1CC[C@@H]1[C@@H]2[C@@H](O)C[C@@]2(C)[C@H]1CC[C@]2(O)C(=O)CO [Hydrocortisone]
- Average Pedis Area, Hours: 0 ([7]; 1% Cream, Skin): 6.9 mm^2
- Average Pedis Area, Hours: 24 ([7]; 1% Cream, Skin): 8.9*** mm^2
- Average Pedis Area, Hours: 48 ([7]; 1% Cream, Skin): 7.8*** mm^2
- Average Pedis Area, Hours: 60 ([7]; 1% Cream, Skin): 7.9*** mm^2
- Average Pedis Area, Hours: 12 ([8]; 1% Cream, Skin): 9.0*** mm^2
- Toxicity Death ([8]; 1% Cream, Skin): 0/5

Compound: COc1c(C)c2c(c(O)c1C/C=C(\C)CCC(=O)O)C(=O)OC2 [MPA]
- IC50 [9]: 0.095 ± 0.027 µM
- IC50 [10]: 0.416 ± 0.21 µM

Compound: CO[C@H]1C[C@@H]2CC[C@@H](C)[C@@](O)(O2)C(=O)C(=O)N2CCCC[C@H]2C(=O)O[C@H]([C@H](C)C[C@@H]2CC[C@@H](O)[C@H](OC)C2)CC(=O)[C@H](C)/C=C(\C)[C@@H](O)[C@@H](OC)C(=O)[C@H](C)C[C@H](C)/C=C/C=C/C=C/1C [Rapamycine, reference compound]
- IC50 ([3]; Homo sapiens, Lymphocyte): 0.61 µM

From US6355639B1, “Reverse prenyl compounds as immunosuppressants” (Sloan-Kettering Institute for Cancer Research, priority 1997, dated 2002)
